Measured values: publication PMC6438780 (Xenobiotica; the fate of foreign compounds in biological …, 2018)
Like-named read-outs stand apart in the source and are kept apart here.

Experiments:
human liver microsomes [1] = assay: Effects of CYP-specific inhibitors; conditions: liver sample HH54 microsomes
[2] = test system: liver microsomes of humans; conditions: ref data sheets provided by the manufacturer, cited from earlier work
human liver microsomes [3] = test system: human liver microsomes
CYP2A6.1 = molecular target: T1, CYP2A6.1 (Homo sapiens, UniProt P11509); conditions: 20 min, 60 µM
T1 sequence (P11509 1-494): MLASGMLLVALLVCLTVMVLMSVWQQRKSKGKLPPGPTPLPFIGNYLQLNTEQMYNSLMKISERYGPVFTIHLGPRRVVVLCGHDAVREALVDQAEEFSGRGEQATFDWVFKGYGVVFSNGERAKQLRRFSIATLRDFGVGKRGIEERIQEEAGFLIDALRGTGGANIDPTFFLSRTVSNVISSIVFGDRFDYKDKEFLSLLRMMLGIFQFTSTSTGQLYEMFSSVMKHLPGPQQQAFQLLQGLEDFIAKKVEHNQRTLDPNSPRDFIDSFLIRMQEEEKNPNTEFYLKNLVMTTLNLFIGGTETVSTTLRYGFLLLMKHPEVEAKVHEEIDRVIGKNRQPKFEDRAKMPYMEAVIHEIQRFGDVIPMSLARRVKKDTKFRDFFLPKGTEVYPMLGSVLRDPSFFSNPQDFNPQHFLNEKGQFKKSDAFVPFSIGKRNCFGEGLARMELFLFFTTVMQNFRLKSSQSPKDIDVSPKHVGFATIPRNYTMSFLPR

human liver microsomes [4] = assay: Oxidation of flavanone and flavone by human liver microsomes; conditions: P450s and human liver microsomes, whole assay system

O=c1cc(-c2ccccc2)oc2c1ccc1ccccc12 [ANF, α-naphthoflavone]
effect on formation of 7OHFva, 3´OHFva, 4´OHFva OHFvaM5, and OHFvaM6 (from flavanone) (human liver microsomes [1]; 60 µM flavanone): inhibited
effect on formation of OHFM11, diOHFM3, and diOHFM5 (from flavone) (human liver microsomes [1]; 60 µM flavone): inhibited

CC(=O)O[C@H]1C(=O)[C@@]2(C)[C@H]([C@H](OC(=O)c3ccccc3)[C@]3(O)C[C@H](OC(=O)[C@H](O)[C@@H](NC(=O)c4ccccc4)c4ccccc4)C(C)=C1C3(C)C)[C@]1(OC(C)=O)CO[C@@H]1C[C@@H]2O [Paclitaxel]
Paclitaxel 6a-hydroxylation ([2]; human sample HG95): 0.093 nmol/min/mg
Paclitaxel 6a-hydroxylation ([2]; human sample HH2): 0.13 nmol/min/mg
Paclitaxel 6a-hydroxylation ([2]; human sample HH47): 0.13 nmol/min/mg
Paclitaxel 6a-hydroxylation ([2]; human sample HH54): 0.21 nmol/min/mg

CCOc1ccc(NC(C)=O)cc1 [Phenacetin]
Phenacetin O-deethylation ([2]; human sample HG95): 0.26 nmol/mg/min
Phenacetin O-deethylation ([2]; human sample HH2): 0.51 nmol/mg/min
Phenacetin O-deethylation ([2]; human sample HH47): 0.36 nmol/mg/min
Phenacetin O-deethylation ([2]; human sample HH54): 0.44 nmol/mg/min

CC[C@@]1(c2ccccc2)NC(=O)N(C)C1=O [S-Mephenytoin]
S-Mephenytoin 4’-hydroxylation ([2]; human sample HG95): 0.015 nmol/min/mg
S-Mephenytoin N-demethylation ([2]; human sample HG95): 0.0070 nmol/min/mg
S-Mephenytoin 4’-hydroxylation ([2]; human sample HH2): 0.020 nmol/min/mg
S-Mephenytoin N-demethylation ([2]; human sample HH2): 0.010 nmol/min/mg
S-Mephenytoin 4’-hydroxylation ([2]; human sample HH47): 0.0040 nmol/min/mg
S-Mephenytoin N-demethylation ([2]; human sample HH47): 0.0065 nmol/min/mg
S-Mephenytoin 4’-hydroxylation ([2]; human sample HH54): 0.026 nmol/min/mg
S-Mephenytoin N-demethylation ([2]; human sample HH54): 0.0010 nmol/min/mg

C[C@]12CC[C@H]3[C@@H](CCC4=CC(=O)CC[C@@]43C)[C@@H]1CC[C@@H]2O [Testosterone]
Testosterone 6β-hydroxylation ([2]; human sample HG95): 0.64 nmol/mg/min
Testosterone 6β-hydroxylation ([2]; human sample HH2): 0.78 nmol/mg/min
Testosterone 6β-hydroxylation ([2]; human sample HH47): 4.1 nmol/mg/min
Testosterone 6β-hydroxylation ([2]; human sample HH54): 4.9 nmol/mg/min

O=c1ccc2ccccc2o1 [coumarin]
Coumarin 7-hydroxylation ([2]; human sample HG95): 0.18 nmol/mg/min
Coumarin 7-hydroxylation ([2]; human sample HH2): no detectable
Coumarin 7-hydroxylation ([2]; human sample HH47): 0.51 nmol/mg/min
Coumarin 7-hydroxylation ([2]; human sample HH54): 2.5 nmol/mg/min
effect on formation of flavone (from flavanone) (human liver microsomes [1]; 60 µM flavanone): inhibited
effect on 2´OHFva formation (from flavanone) (human liver microsomes [1]; 60 µM flavanone, low concentration of inhibitor): markedly decreased
effect on formation of OHFM6, OHFM9, and diOHFM4 (from flavone) (human liver microsomes [1]; 60 µM flavone, low concentration of inhibitor): strongly inhibited

O=C1CC(c2ccccc2)Oc2ccccc21 (stereo not drawn) [flavanone, Flavanone]
rate of formation of flavone from flavanone (human liver microsomes [3]): 0.15 nmol/min/nmol

O=c1cc(-c2ccccc2)oc2ccccc12 [flavone]
rate of formation of 5OHF from flavone (CYP2A6.1): ~ 0.01 nmol/min/nmol P450
rate of formation of 6OHF from flavone (CYP2A6.1): 0.11 min⁻¹
enzymatic formation of 7OHF from flavone (human liver microsomes [4]): did not detect
